According to PMC5285354, “Cationic Net Charge and Counter Ion Type as Antimicrobial Activity Determinant Factors of Short Lipopeptides” (Frontiers in Microbiology, 2017):
In brackets after ≈: the same amount, converted by molar mass. Where a SMILES comes first, the peptide text is derived from it. The star is where a group is joined. Palmitoyl = CCCCCCCCCCCCCCCC(=O)*

Legend:
Type in all cases: cell-based
[1] = system: Aspergillus brasiliensis (ATCC 16404); conditions: ATCC 16404, 48 h
Procedure, shortened: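 Lowest lipopeptide concentration (μg/mL) with no observable growth gave the MIC, alongside MBC/MFC, by CLSI microbroth dilution. Fungi: Sabouraud dextrose broth, 10^3 cfu/mL start, 25°C for 48 h; bacteria: MH broth, 10^5 cfu/mL, 37°C for 18 h. Run in triplicate, three separate days.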

[2] = system: Bacillus subtilis (ATCC 6633); conditions: for MIC Bacillus subtillis: ATCC 6633, 18 h; for MBC Bacillus subtillis: ATCC 6633, 24 h
Procedure, shortened: (§1)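 Broth microdilution per CLSI: Mueller-Hinton broth, 10^5 cfu/mL inoculum, 18 h at 37°C for bacteria; Sabouraud dextrose broth, 10^3 cfu/mL, 48 h at 25°C for fungi. MIC (μg/mL) is the lowest lipopeptide concentration inhibiting visible growth; MBC/MFC also determined. Triplicate on three days.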

[3] = system: Candida albicans (ATCC 10231); conditions: ATCC 10231, 48 h
Procedure, shortened: (§2)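 CLSI broth microdilution: bacteria in Mueller-Hinton broth at 10^5 cfu/mL inoculum, 18 h at 37°C; fungi in Sabouraud Dextrose broth at 10^3 cfu/mL, 48 h at 25°C. MIC (μg/mL) is the lowest lipopeptide concentration inhibiting visible growth; triplicate on three days.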

[4] = system: Candida tropicalis (PCM 2681); conditions: PCM 2681, 48 h
Procedure, shortened: as §2

[5] = system: Enterococcus faecalis (ATCC 29212); conditions: for MBC Enterococcus fecalis, lipopeptides without TFA counter ion / MIC Enterococcus fecalis / MIC Enterococcus fecalis, lipopeptides without TFA counter ion: ATCC 29212, 18 h; for MBC Enterococcus fecalis: ATCC 29212, 24 h
Procedure, shortened: as §1

[6] = system: Escherichia coli (ATCC 25922); conditions: for MBC Escherichia coli, lipopeptides without TFA counter ion / MIC Escherichia coli / MIC Escherichia coli, lipopeptides without TFA counter ion: ATCC 25922, 18 h; for MBC Escherichia coli: ATCC 25922, 24 h
Procedure, shortened: as §2

[7] = system: Klebsiella pneumoniae (ATCC 700603); conditions: for MBC Klebsiella pneumoniae, lipopeptides without TFA counter ion / MIC Klebsiella pneumoniae / MIC Klebsiella pneumoniae, lipopeptides without TFA counter ion: ATCC 700603, 18 h; for MBC Klebsiella pneumoniae: ATCC 700603, 24 h
Procedure, shortened: as §2

[8] = system: Proteus vulgaris (PCM 2668); conditions: 18 h
Procedure, shortened: as §2

[9] = system: Pseudomonas aeruginosa (ATCC 9027); conditions: ATCC 9027, 18 h
Procedure, shortened: as §2

[10] = system: Staphylococcus aureus (ATCC 25923); conditions: for MBC Staphylococcus aureus, lipopeptides without TFA counter ion / MIC Staphylococcus aureus / MIC Staphylococcus aureus, lipopeptides without TFA counter ion: ATCC 25923, 18 h; for MBC Staphylococcus aureus: ATCC 25923, 24 h
Procedure, shortened: as §2

[11] = system: Staphylococcus epidermidis (PCM 2118); conditions: for MIC Staphylococcus epidermidis: PCM 2118, 18 h; for MBC Staphylococcus epidermidis: PCM 2118, 24 h
Procedure, shortened: as §1

human red blood cells = conditions: 1 h
Procedure, shortened: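 Washed donor erythrocytes (4% v/v in PBS, EDTA-anticoagulated) incubated with graded lipopeptide concentrations for 1 h at 37 °C; hemoglobin release read at 550 nm in supernatants. Scaled between 0.1% Triton X-100 (100%) and PBS (0%); MHC is the lowest concentration giving 10% hemolysis.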

[12] = system: Pseudomonas aeruginosa (ATCC 9027); conditions: ATCC 9027, 24 h
[13] = system: Proteus vulgaris (PCM 2668); conditions: 24 h
[14] = system: Candida albicans (ATCC 10231)

SMILES	MFC Aspergillus brasiliensis [1]	MIC Aspergillus brasiliensis [1]	MIC Bacillus subtillis [2]	MBC Bacillus subtillis [2]	MFC Candida albicans [3]	MIC Candida albicans [3]	MIC Candida albicans, lipopeptides without TFA counter ion [3]	MFC Candida tropicalis [4]	MIC Candida tropicalis [4]	MBC Enterococcus fecalis, lipopeptides without TFA counter ion [5]	MIC Enterococcus fecalis [5]	MIC Enterococcus fecalis, lipopeptides without TFA counter ion [5]	MBC Enterococcus fecalis [5]	MBC Escherichia coli, lipopeptides without TFA counter ion [6]	MIC Escherichia coli [6]	MIC Escherichia coli, lipopeptides without TFA counter ion [6]	MBC Escherichia coli [6]	MBC Klebsiella pneumoniae, lipopeptides without TFA counter ion [7]	MIC Klebsiella pneumoniae [7]	MIC Klebsiella pneumoniae, lipopeptides without TFA counter ion [7]	also measured
CCCCCCCCCCCCCCCC(=O)N[C@@H](CCCCN)C(=O)NCC(N)=O [C16-KG-NH2] (Palmitoyl-Lys-Gly-NH2)	512 mg/L (≈ 1160 µM)	512 mg/L (≈ 1160 µM)	4 mg/L (≈ 9.08 µM)	4 mg/L (≈ 9.08 µM)	128 mg/L (≈ 290 µM)	128 mg/L (≈ 290 µM)	128 mg/L (≈ 290 µM)	512 mg/L (≈ 1160 µM)	256 mg/L (≈ 581 µM)	8 mg/L (≈ 18.2 µM)	16 mg/L (≈ 36.3 µM)	4 mg/L (≈ 9.08 µM)	16 mg/L (≈ 36.3 µM)	256 mg/L (≈ 581 µM)	256 mg/L (≈ 581 µM)	256 mg/L (≈ 581 µM)	256 mg/L (≈ 581 µM)	256 mg/L (≈ 581 µM)	128 mg/L (≈ 290 µM)	128 mg/L (≈ 290 µM)	MBC Klebsiella pneumoniae [7]: 256 mg/L (≈ 581 µM); MIC Proteus vulgaris [8]: >512 mg/L; MIC Pseudomonas aeruginosa [9]: 256 mg/L (≈ 581 µM); MBC Staphylococcus aureus, lipopeptides without TFA counter ion [10]: 4 mg/L (≈ 9.08 µM); MIC Staphylococcus aureus [10]: 8 mg/L (≈ 18.2 µM); MIC Staphylococcus aureus, lipopeptides without TFA counter ion [10]: 4 mg/L (≈ 9.08 µM); MBC Staphylococcus aureus [10]: 8 mg/L (≈ 18.2 µM); MIC Staphylococcus epidermidis [11]: 4 mg/L (≈ 9.08 µM); MBC Staphylococcus epidermidis [11]: 4 mg/L (≈ 9.08 µM); Hemolysis HC10 (MHC), concentration of lipopeptide inducing 10% of hemolysis (human red blood cells): 256 µg/mL; MBC Pseudomonas aeruginosa [12]: 1000 mg/L (≈ 2270 µM); MBC Proteus vulgaris [13]: >512 mg/L; MFC Candida albicans, lipopeptides without TFA counter ion [14]: 128 mg/L (≈ 290 µM)
CCCCCCCCCCCCCCCC(=O)N[C@@H](CCCCN)C(=O)NCC(=O)N[C@@H](CCCCN)C(N)=O [C16-KGK-NH2] (Palmitoyl-Lys-Gly-Lys-NH2)	128 mg/L (≈ 225 µM)	128 mg/L (≈ 225 µM)	4 mg/L (≈ 7.03 µM)	4 mg/L (≈ 7.03 µM)	128 mg/L (≈ 225 µM)	128 mg/L (≈ 225 µM)	128 mg/L (≈ 225 µM)	256 mg/L (≈ 450 µM)	256 mg/L (≈ 450 µM)	4 mg/L (≈ 7.03 µM)	8 mg/L (≈ 14.1 µM)	4 mg/L (≈ 7.03 µM)	16 mg/L (≈ 28.1 µM)	4 mg/L (≈ 7.03 µM)	8 mg/L (≈ 14.1 µM)	4 mg/L (≈ 7.03 µM)	8 mg/L (≈ 14.1 µM)	64 mg/L (≈ 113 µM)	16 mg/L (≈ 28.1 µM)	32 mg/L (≈ 56.3 µM)	MBC Klebsiella pneumoniae [7]: 16 mg/L (≈ 28.1 µM); MIC Proteus vulgaris [8]: >512 mg/L; MIC Pseudomonas aeruginosa [9]: 16 mg/L (≈ 28.1 µM); MBC Staphylococcus aureus, lipopeptides without TFA counter ion [10]: 4 mg/L (≈ 7.03 µM); MIC Staphylococcus aureus [10]: 8 mg/L (≈ 14.1 µM); MIC Staphylococcus aureus, lipopeptides without TFA counter ion [10]: 4 mg/L (≈ 7.03 µM); MBC Staphylococcus aureus [10]: 8 mg/L (≈ 14.1 µM); MIC Staphylococcus epidermidis [11]: 4 mg/L (≈ 7.03 µM); MBC Staphylococcus epidermidis [11]: 4 mg/L (≈ 7.03 µM); Hemolysis HC10 (MHC), concentration of lipopeptide inducing 10% of hemolysis (human red blood cells): 64 µg/mL; MBC Pseudomonas aeruginosa [12]: 32 mg/L (≈ 56.3 µM); MBC Proteus vulgaris [13]: >512 mg/L; MFC Candida albicans, lipopeptides without TFA counter ion [14]: 128 mg/L (≈ 225 µM)
CCCCCCCCCCCCCCCC(=O)N[C@@H](CCCCN)C(=O)NCC(=O)N[C@@H](CCCCN)C(=O)NCC(N)=O [C16-KGKG-NH2] (Palmitoyl-KGKG-NH2)	128 mg/L (≈ 205 µM)	128 mg/L (≈ 205 µM)	4 mg/L (≈ 6.39 µM)	4 mg/L (≈ 6.39 µM)	128 mg/L (≈ 205 µM)	128 mg/L (≈ 205 µM)	128 mg/L (≈ 205 µM)	256 mg/L (≈ 409 µM)	256 mg/L (≈ 409 µM)	16 mg/L (≈ 25.6 µM)	16 mg/L (≈ 25.6 µM)	16 mg/L (≈ 25.6 µM)	16 mg/L (≈ 25.6 µM)	8 mg/L (≈ 12.8 µM)	16 mg/L (≈ 25.6 µM)	8 mg/L (≈ 12.8 µM)	16 mg/L (≈ 25.6 µM)	32 mg/L (≈ 51.1 µM)	16 mg/L (≈ 25.6 µM)	16 mg/L (≈ 25.6 µM)	MBC Klebsiella pneumoniae [7]: 16 mg/L (≈ 25.6 µM); MIC Proteus vulgaris [8]: >512 mg/L; MIC Pseudomonas aeruginosa [9]: 8 mg/L (≈ 12.8 µM); MBC Staphylococcus aureus, lipopeptides without TFA counter ion [10]: 16 mg/L (≈ 25.6 µM); MIC Staphylococcus aureus [10]: 16 mg/L (≈ 25.6 µM); MIC Staphylococcus aureus, lipopeptides without TFA counter ion [10]: 8 mg/L (≈ 12.8 µM); MBC Staphylococcus aureus [10]: 32 mg/L (≈ 51.1 µM); MIC Staphylococcus epidermidis [11]: 4 mg/L (≈ 6.39 µM); MBC Staphylococcus epidermidis [11]: 4 mg/L (≈ 6.39 µM); Hemolysis HC10 (MHC), concentration of lipopeptide inducing 10% of hemolysis (human red blood cells): 64 µg/mL; MBC Pseudomonas aeruginosa [12]: 8 mg/L (≈ 12.8 µM); MBC Proteus vulgaris [13]: >512 mg/L; MFC Candida albicans, lipopeptides without TFA counter ion [14]: 128 mg/L (≈ 205 µM)
